Measured values from ChEMBL document CHEMBL5226280, “Non-hydroxamate inhibitors of 1-deoxy-d-xylulose 5-phosphate reductoisomerase (DXR): A critical review and future perspective” (Eur J Med Chem, 2021).
≈ marks a conversion by molar mass, not a printed value. Values belong to the compound of their own block, whether it stands above or below them.

How the values were obtained:
[1] = target: T1, 1-deoxy-D-xylulose 5-phosphate reductoisomerase (Escherichia coli K-12, UniProt P45568); test: Inhibition of Escherichia coli DXR assessed as inhibition constant pre-incubated for 2 mins in presence of NADPH by spectrophotometric assay
T1 sequence (P45568 whole entry): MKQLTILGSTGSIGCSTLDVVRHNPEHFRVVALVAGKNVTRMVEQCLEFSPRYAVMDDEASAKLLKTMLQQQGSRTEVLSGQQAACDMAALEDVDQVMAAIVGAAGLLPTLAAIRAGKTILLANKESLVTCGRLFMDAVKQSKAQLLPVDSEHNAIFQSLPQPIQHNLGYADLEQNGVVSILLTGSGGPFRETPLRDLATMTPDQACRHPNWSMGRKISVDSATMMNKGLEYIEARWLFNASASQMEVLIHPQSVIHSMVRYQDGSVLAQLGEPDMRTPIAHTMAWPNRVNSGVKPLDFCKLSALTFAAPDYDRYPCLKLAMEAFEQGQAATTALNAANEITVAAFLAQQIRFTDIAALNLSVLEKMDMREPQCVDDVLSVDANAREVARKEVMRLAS

[2] = tested on: Escherichia coli; test: Antimicrobial activity against Escherichia coli deltaGlpT JW2234-2 assessed as minimal inhibitory concentration incubated for 18 hrs by microdilution assay; assay type: functional
[3] = tested on: Escherichia coli; test: Antimicrobial activity against Escherichia coli BW25113 assessed as minimal inhibitory concentration incubated for 18 hrs by microdilution assay; assay type: functional
[4] = target: T1, 1-deoxy-D-xylulose 5-phosphate reductoisomerase; test: Inhibition of recombinant Escherichia coli DXR in presence of NADPH
[5] = tested on: Plasmodium falciparum; test: Antiplasmodial activity against Plasmodium falciparum K1 infected in human erythrocyte assessed as assessed as inhibition of parasite growth; assay type: functional, organism-based
[6] = target: T1, 1-deoxy-D-xylulose 5-phosphate reductoisomerase; test: Inhibition of His-tagged Escherichia coli DXR using DXP as substrate incubated for 1 min in presence of NADPH by UV-Vis spectrophotometric assay

SMILES: O=C(CCCP(=O)(O)O)NO
IC50 [1]: 0.17 µM

SMILES: CN(O)C(=O)CCCP(=O)(O)O
IC50 [1]: 0.048 µM

SMILES: CN1CC(=O)OB(CCCP(=O)(O)O)OC(=O)C1
MIC90 [2]: 52 µg/mL (≈ 186 µM) | MIC90 [3]: 63 µg/mL (≈ 226 µM)

IC50 [4]: 25 µM
SMILES: CN(O)C(=O)CCCC(=O)O

SMILES: CS(=O)(=O)c1ccccc1NC(=O)CCCP(=O)(O)O
IC50 [5]: > 64 µM

SMILES: O=P(O)(O)CCCB(O)O
IC50 [6]: 125 µM | MIC90 [2]: 37 µg/mL (≈ 220 µM) | MIC90 [3]: 53 µg/mL (≈ 316 µM)

SMILES: CC(=O)c1ccccc1NC(=O)CCCP(=O)(O)O
IC50 [5]: > 64 µM

SMILES: O=C(CCCP(=O)(O)O)Nc1ccccc1F
IC50 [5]: > 64 µM
